Columns and labels:
MDA-MB-231 cells = test: Transwell migration assay; assay type: cell-based; conditions: Homo sapiens, MDA-MB-231, 48 h
Protocol: The significance of our compounds in inhibiting matriptase and targeting its downstream cellular substrates was evaluated by examining the effect of kempopeptin C (3) on the migration of highly invasive breast cancer cells. The effect on migration was investigated by treating MDA-MB-231 cells with different concentrations of the test compound or solvent control for 48 h. Following 48 h, migrated cells were stained with crystal violet, and the number was counted under the microscope. […] To rule out that proteasome inhibition might be responsible for the migration inhibitory activity, the effect of kempopeptin C (3) on the trypsin-like activity of proteasomes was tested in vitro.
Figure 7 The effect of kempopeptin C (3) on the migration of MDA-MB-231. MDA-MB-231 were incubated for 48 h in the presence of different concentrations (0, 10 or 20 µM) of 3 and the effect was compared to the solvent control. The graph represents the number of migrated cells in each treatment group. The asterisks denote the significance of p ≤ 0.01 relative to the solvent control using the two-tailed unpaired t-test. Data are presented as the mean ± SD, n = 3.
The migration assays were performed using BD falcon cell culture inserts (353097; PET membrane, 8-µm pore size; Fisher Scientific; Waltham, MA, USA) in 24-well plates. […]

[1] = molecular target: T1, 20S proteasome (trypsin-like activity) (Homo sapiens, UniProt Q99436); test: Proteasome Glo Trypsin-Like Activity Assay; assay type: biochemical; conditions: 10 and 1 µM, in vitro
T1 construct: purchased Enzo Life Sciences
Protocol: The inhibition of proteasomes was assessed using the Proteasome Glo Trypsin-Like Activity Assay from Promega according to the manufacturer’s instructions. Briefly, in white 96-well plates, kempopeptin C (3) (10 and 1 µM final concentration) was incubated at room temperature with 0.1 µg 20S proteasome (Enzo Life Sciences, Farmingdale, NY, USA) for 10 min to allow enzyme inhibitor interactions. Following the incubation period, the detection reagent containing Z-LRR-aminoluciferin substrate was added. The plate was gently mixed at 400 rpm for 30 s and then incubated at room temperature for 10 min. The luminescence signal was then measured using the EnVision plate reader (PerkinElmer, Waltham, MA, USA). Epoxomicin was used as a positive control.
Effect of kempopeptin C on the trypsin- like activity of
Kempopeptin C (10 µM) Kempopeptin C (1 µM) Epoxomicin (5 µM)
Figure S2. Effect of kempopeptin C (3) on the proteasome activity in vitro assessed using proteasome Glo trypsin- like
activity assay (Promega).

[2] = molecular target: T2, plasmin from human plasma (Homo sapiens, UniProt P00747); test: Plasmin inhibition assay; assay type: biochemical; conditions: mean ± SD, n = 3; 30-min preincubation; read-out: IC50 against plasmin
T2 construct: purchased Sigma P1867; host or cells: human plasma
Protocol: The plasmin inhibition assay was carried out by incubating 5 µL of […] plasmin from human plasma (P1867, Sigma, St. Louis, MO, USA) with 1 µL of different concentrations of inhibitors (2 and 3; half log dilutions prepared in DMSO) or the solvent control in the presence of 89 µL assay buffer (0.05 M Tris-HCl, pH 8.9). After a 30-min incubation time, 5 µL of 1.7 mM substrate solution (N-p-Tosyl-D-Gly-Pro-Lys-4-nitroanilide acetate salt; prepared in assay buffer) were added to each well. The reaction was monitored by measuring the absorbance at 405 nm every 30 s for 30 min using the SpectraMax M5 plate reader (Molecular Devices).

[3] = molecular target: T3, recombinant human matriptase (Homo sapiens, UniProt Q9Y5Y6); test: Matriptase inhibition assay; assay type: biochemical; conditions: mean ± SD, n = 3; 15-min preincubation; read-out: IC50 against matriptase
T3 construct: purchased R&D Systems 3946-SE-010
T3 sequence (Q9Y5Y6 615-855 limits assumed): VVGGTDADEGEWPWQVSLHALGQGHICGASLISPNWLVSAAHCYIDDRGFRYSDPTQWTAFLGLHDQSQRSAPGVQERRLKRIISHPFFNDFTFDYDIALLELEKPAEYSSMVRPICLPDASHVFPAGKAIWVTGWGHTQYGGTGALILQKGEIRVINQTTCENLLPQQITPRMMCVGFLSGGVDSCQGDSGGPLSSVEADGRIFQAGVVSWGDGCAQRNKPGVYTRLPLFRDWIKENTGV
Protocol: In matriptase inhibition assay, 50 µL of recombinant human matriptase (R&D Systems, Minneapolis, MN, USA; 3946-SE-010) ([…] prepared in assay buffer: 50 mM Tris, 50 mM NaCl, 0.01% Tween 20; pH 9.0) and 1 µL of different concentrations of inhibitors (2 and 3; half log dilutions prepared in DMSO) or the solvent control were pre-incubated at room temperature for 15 min. Following the incubation period, 50 µL of the 50 µM substrate solution (Boc-Gln-Ala-Arg-AMC) (R&D Systems, Minneapolis, MN, USA; ES014) were added to each well, and the enzyme activity was monitored by measuring the increase in fluorescence signal from the fluorescently-labeled substrate every 30 s for 30 min (Ex 380 nm, Em 460 nm) using the SpectraMax M5 plate reader (Molecular Devices).

T2 sequence (P00747 581-810 limits assumed): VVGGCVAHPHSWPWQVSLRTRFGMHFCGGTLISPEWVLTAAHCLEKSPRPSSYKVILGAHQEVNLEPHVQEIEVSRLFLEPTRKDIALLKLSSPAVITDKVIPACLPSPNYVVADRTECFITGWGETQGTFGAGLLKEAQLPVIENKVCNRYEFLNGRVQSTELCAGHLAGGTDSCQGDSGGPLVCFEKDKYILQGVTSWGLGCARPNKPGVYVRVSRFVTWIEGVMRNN
T2 sequence (P00747 98-580 partner limits assumed): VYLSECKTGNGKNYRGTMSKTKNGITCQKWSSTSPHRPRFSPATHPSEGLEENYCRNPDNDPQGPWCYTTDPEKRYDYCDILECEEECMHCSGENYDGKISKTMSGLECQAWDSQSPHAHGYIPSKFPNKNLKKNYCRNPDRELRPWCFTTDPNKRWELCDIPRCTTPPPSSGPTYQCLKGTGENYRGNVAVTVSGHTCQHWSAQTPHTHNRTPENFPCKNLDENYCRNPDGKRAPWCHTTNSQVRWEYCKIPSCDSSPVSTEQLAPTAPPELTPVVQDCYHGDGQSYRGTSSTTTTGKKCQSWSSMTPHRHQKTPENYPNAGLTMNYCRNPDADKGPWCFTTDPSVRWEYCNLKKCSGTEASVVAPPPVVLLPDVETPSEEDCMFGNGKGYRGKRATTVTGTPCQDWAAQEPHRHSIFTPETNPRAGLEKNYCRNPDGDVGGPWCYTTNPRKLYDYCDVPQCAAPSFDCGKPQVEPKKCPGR

`CCCC(=O)NC(C(=O)NC1C(=O)NC(CCCCN)C(=O)NC2CCC(O)N(C2=O)C(C(C)CC)C(=O)N(C)C(Cc2ccc(OC)c(Cl)c2)C(=O)NC(C(C)C)C(=O)OC1C)C(C)C` (centres unmarked) [Kempopeptin C, kempopeptin C] was tested, and the inhibition at 10 µM (MDA-MB-231 cells; MDA-MB-231, 10 µM) was 37%, the inhibition at 20 µM (MDA-MB-231 cells; MDA-MB-231, 20 µM) was 60% and the “Effect on trypsin-like activity of proteasomes” value [1] was “did not inhibit the trypsin-like activity of proteasomes”. It also gave an IC50 [2] of 0.36 ± 0.09 µM and an IC50 [3] of 0.28 ± 0.03 µM.

Source: PMC5618429, “Kempopeptin C, a Novel Marine-Derived Serine Protease Inhibitor Targeting Invasive Breast Cancer” (Marine Drugs, 2017)
